Reference: PubChem BioAssay AID1963425 (Molecular Pharmacology Branch, DTP, NCI, 2024)
Values joined by “and” are separate entries in the source; they are usually repeats but may differ in a detail not shown here. Identical values can stand only once.

System: 323965-272-R-J2-PDC complex spheroid growth, % test/control
Assay: Anticancer human tumor 323965-272-R-J2-PDC patient-derived pancreatic carcinoma cell line growth inhibition [Asc]
Conditions: for viability, T/C: stronger effect = lower value; active = viability on the fitted dose curve at most 10% of control; inactive = the rest
Procedure, shortened: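 Stromal components (HUVEC and hMSC) are co-assembled with the cancer cells into multicellular spheroids. Drugs are then added singly or paired, at concentrations falling by half-log increments from a clinically achievable maximum, capped at 10 microM without known Cmax.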
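Note: compound exposure lasted 7 days starting three days after spheroid seeding.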
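Throughout, for viability, T/C: 100% = DMSO vehicle control wells with viability set relative to vehicle.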

C=C(F)C(=O)N1CCN(c2nc(OCC3CCCN3C)nc3c2CCN(c2cccc4cccc(Cl)c24)C3)CC1CC#N (stereo unspecified) + CCN1C(C(=O)NC23CCC(C(=O)O)(CC2)CC3)C(c2cccc(Cl)c2F)C2(C(=O)Nc3cc(Cl)ccc32)C12CCCCC2
> 10 µM: IC50 (curve of first compound, second compound 0.00949 µM)
5.59 µM: IC50 (curve of first compound, second compound 0.03 µM)
inactive: viability, T/C (second compound 0.00949 µM, first compound 0.0316 µM) 62.2% | viability, T/C (second compound 0.00949 µM, first compound 0.1 µM) 64% | viability, T/C (second compound 0.00949 µM, first compound 0.316 µM) 61.5% | viability, T/C (second compound 0.00949 µM, first compound 1 µM) 58.6% | viability, T/C (second compound 0.00949 µM, first compound 3.16 µM) 85.7% | viability, T/C (second compound 0.00949 µM, first compound 10 µM) 32.8% | viability, T/C (second compound 0.03 µM, first compound 0.0316 µM) 79% | viability, T/C (second compound 0.03 µM, first compound 0.1 µM) 65.3% | viability, T/C (second compound 0.03 µM, first compound 0.316 µM) 59.7% | viability, T/C (second compound 0.03 µM, first compound 1 µM) 61.2% | viability, T/C (second compound 0.03 µM, first compound 3.16 µM) 81.8% | viability, T/C (second compound 0.03 µM, first compound 10 µM) 30.2% | viability, T/C (second compound 0.0949 µM, first compound 0.0316 µM) 73.4% | viability, T/C (second compound 0.0949 µM, first compound 0.1 µM) 60% | viability, T/C (second compound 0.0949 µM, first compound 0.316 µM) 60.5% | viability, T/C (second compound 0.0949 µM, first compound 1 µM) 63.7% | viability, T/C (second compound 0.0949 µM, first compound 3.16 µM) 74.3% | viability, T/C (second compound 0.0949 µM, first compound 10 µM) 33.5% | viability, T/C (second compound 0.3 µM, first compound 0.0316 µM) 81.1% | viability, T/C (second compound 0.3 µM, first compound 0.1 µM) 64.4% | viability, T/C (second compound 0.3 µM, first compound 0.316 µM) 65% | viability, T/C (second compound 0.3 µM, first compound 1 µM) 66.3% | viability, T/C (second compound 0.3 µM, first compound 3.16 µM) 74.8% | viability, T/C (second compound 0.3 µM, first compound 10 µM) 31.8% | viability, T/C (second compound 0.949 µM, first compound 0.0316 µM) 73.4% | viability, T/C (second compound 0.949 µM, first compound 0.1 µM) 65.9% | viability, T/C (second compound 0.949 µM, first compound 0.316 µM) 63.8% | viability, T/C (second compound 0.949 µM, first compound 1 µM) 62.7% | viability, T/C (second compound 0.949 µM, first compound 3.16 µM) 83.8% | viability, T/C (second compound 0.949 µM, first compound 10 µM) 24.1% | viability, T/C (second compound 3 µM, first compound 0.0316 µM) 70.7% | viability, T/C (second compound 3 µM, first compound 0.1 µM) 57% | viability, T/C (second compound 3 µM, first compound 0.316 µM) 61% | viability, T/C (second compound 3 µM, first compound 1 µM) 71.9% | viability, T/C (second compound 3 µM, first compound 3.16 µM) 82.3% | viability, T/C (second compound 3 µM, first compound 10 µM) 13.8%
5.79 µM: IC50 (curve of first compound, second compound 0.3 µM)
4.67 µM: IC50 (curve of first compound, second compound 3 µM)
5.21 µM: IC50 (curve of first compound, second compound 0.949 µM)
5.62 µM: IC50 (curve of first compound, second compound 0.0949 µM)

C=C(F)C(=O)N1CCN(c2nc(OCC3CCCN3C)nc3c2CCN(c2cccc4cccc(Cl)c24)C3)CC1CC#N (stereo unspecified) + CNC(C)C(=O)NC1CN(S(=O)(=O)c2cccc(S(=O)(=O)N3CCC4CCC(C(=O)NC(c5ccccc5)c5ccccc5)N4C(=O)C(NC(=O)C(C)NC)C3)c2)CCC2CCC(C(=O)NC(c3ccccc3)c3ccccc3)N2C1=O
inactive: viability, T/C (second compound 0.00316 µM, first compound 0.0316 µM) 54.3% | viability, T/C (second compound 0.00316 µM, first compound 0.1 µM) 48.5% | viability, T/C (second compound 0.00316 µM, first compound 0.316 µM) 50.5% | viability, T/C (second compound 0.00316 µM, first compound 1 µM) 56.1% | viability, T/C (second compound 0.00316 µM, first compound 3.16 µM) 67.9% | viability, T/C (second compound 0.01 µM, first compound 0.0316 µM) 62.3% | viability, T/C (second compound 0.01 µM, first compound 0.1 µM) 44.2% | viability, T/C (second compound 0.01 µM, first compound 0.316 µM) 48.8% | viability, T/C (second compound 0.01 µM, first compound 1 µM) 56.6% | viability, T/C (second compound 0.01 µM, first compound 3.16 µM) 66.3% | viability, T/C (second compound 0.0316 µM, first compound 0.0316 µM) 55.8% | viability, T/C (second compound 0.0316 µM, first compound 0.1 µM) 54.8% | viability, T/C (second compound 0.0316 µM, first compound 0.316 µM) 47.1% | viability, T/C (second compound 0.0316 µM, first compound 1 µM) 55.4% | viability, T/C (second compound 0.0316 µM, first compound 3.16 µM) 76% | viability, T/C (second compound 0.1 µM, first compound 0.0316 µM) 52% | viability, T/C (second compound 0.1 µM, first compound 0.1 µM) 46.7% | viability, T/C (second compound 0.1 µM, first compound 0.316 µM) 48.5% | viability, T/C (second compound 0.1 µM, first compound 1 µM) 53.4% | viability, T/C (second compound 0.1 µM, first compound 3.16 µM) 69.9% | viability, T/C (second compound 0.316 µM, first compound 0.0316 µM) 55.5% | viability, T/C (second compound 0.316 µM, first compound 0.1 µM) 53.6% | viability, T/C (second compound 0.316 µM, first compound 0.316 µM) 59.5% | viability, T/C (second compound 0.316 µM, first compound 1 µM) 53.8% | viability, T/C (second compound 0.316 µM, first compound 3.16 µM) 68.3% | viability, T/C (second compound 1 µM, first compound 0.0316 µM) 56.8% | viability, T/C (second compound 1 µM, first compound 0.1 µM) 49.1% | viability, T/C (second compound 1 µM, first compound 0.316 µM) 38.6% | viability, T/C (second compound 1 µM, first compound 1 µM) 56% | viability, T/C (second compound 1 µM, first compound 3.16 µM) 65%
3.55 µM: IC50 (curve of first compound, second compound 0.00316 µM) | IC50 (curve of first compound, second compound 0.01 µM)
active: viability, T/C (second compound 0.00316 µM, first compound 10 µM) 0.23% | viability, T/C (second compound 0.01 µM, first compound 10 µM) 0.24% | viability, T/C (second compound 0.0316 µM, first compound 10 µM) 0.21% | viability, T/C (second compound 0.1 µM, first compound 10 µM) 0.25% | viability, T/C (second compound 0.316 µM, first compound 10 µM) 0.21% | viability, T/C (second compound 1 µM, first compound 10 µM) 0.22%
3.72 µM: IC50 (curve of first compound, second compound 0.316 µM)
3.38 µM: IC50 (curve of first compound, second compound 1 µM)
3.45 µM: IC50 (curve of first compound, second compound 0.1 µM)
3.7 µM: IC50 (curve of first compound, second compound 0.0316 µM)

Cn1ncnc1[C@H]1c2n[nH]c(=O)c3cc(F)cc(c23)N[C@@H]1c1ccc(F)cc1
> 0.1 µM: IC50 (curve of compound)
inactive: viability, T/C (compound 0.000316 µM) 103% and 109% and 106% | viability, T/C (compound 0.001 µM) 96.5% and 103% and 99.3% | viability, T/C (compound 0.00316 µM) 103% and 104% and 99.2% | viability, T/C (compound 0.01 µM) 96.4% (2×) and 120% | viability, T/C (compound 0.0316 µM) 103% and 95.3% and 106% | viability, T/C (compound 0.1 µM) 89.7% and 95.6% and 94.9%
